From article PMC4752590, “Reciprocal effects of capsaicin and menthol on thermosensation through regulated activities of TRPV1 and TRPM8” (The Journal of Physiological Sciences : JPS, 2015)

Tests used:
[1] = target: T1, hTRPM8 (transient receptor potential melastatin 8) (Homo sapiens, UniProt Q7Z2W7); assay: whole-cell patch clamp in HEK293T; inhibition of […] menthol-evoked current; type: cell-based
T1 construct: gene TRPM8; Full-length

[2] = target: T2, hTRPV1 (transient receptor potential vanilloid 1) (Homo sapiens, UniProt Q8NER1); assay: whole-cell patch clamp in HEK293T; inhibition of […] capsaicin-evoked current; type: cell-based
T2 construct: gene TRPV1; Full-length
T2 sequence (Q8NER1 whole entry): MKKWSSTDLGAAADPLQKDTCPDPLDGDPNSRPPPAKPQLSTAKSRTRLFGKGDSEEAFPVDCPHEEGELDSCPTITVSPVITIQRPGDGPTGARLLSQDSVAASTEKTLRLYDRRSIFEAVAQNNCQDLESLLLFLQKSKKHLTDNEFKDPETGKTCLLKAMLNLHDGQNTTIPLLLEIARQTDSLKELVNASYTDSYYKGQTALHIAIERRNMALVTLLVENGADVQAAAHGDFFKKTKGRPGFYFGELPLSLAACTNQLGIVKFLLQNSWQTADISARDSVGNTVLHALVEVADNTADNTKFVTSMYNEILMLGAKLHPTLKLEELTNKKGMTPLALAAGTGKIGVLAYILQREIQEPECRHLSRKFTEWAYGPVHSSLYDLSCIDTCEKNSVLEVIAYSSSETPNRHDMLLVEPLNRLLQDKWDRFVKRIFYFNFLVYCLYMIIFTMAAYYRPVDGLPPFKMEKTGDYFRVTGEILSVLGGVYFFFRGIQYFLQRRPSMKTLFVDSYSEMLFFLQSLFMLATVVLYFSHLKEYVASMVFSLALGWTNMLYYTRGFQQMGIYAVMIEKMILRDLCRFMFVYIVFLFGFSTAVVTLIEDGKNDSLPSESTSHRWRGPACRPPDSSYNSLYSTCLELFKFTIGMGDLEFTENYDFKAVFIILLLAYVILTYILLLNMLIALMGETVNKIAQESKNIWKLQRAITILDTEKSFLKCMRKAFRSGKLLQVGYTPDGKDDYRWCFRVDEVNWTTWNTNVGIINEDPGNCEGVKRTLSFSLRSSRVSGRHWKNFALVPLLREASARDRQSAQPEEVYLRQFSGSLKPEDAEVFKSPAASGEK

T1 sequence (Q7Z2W7 whole entry): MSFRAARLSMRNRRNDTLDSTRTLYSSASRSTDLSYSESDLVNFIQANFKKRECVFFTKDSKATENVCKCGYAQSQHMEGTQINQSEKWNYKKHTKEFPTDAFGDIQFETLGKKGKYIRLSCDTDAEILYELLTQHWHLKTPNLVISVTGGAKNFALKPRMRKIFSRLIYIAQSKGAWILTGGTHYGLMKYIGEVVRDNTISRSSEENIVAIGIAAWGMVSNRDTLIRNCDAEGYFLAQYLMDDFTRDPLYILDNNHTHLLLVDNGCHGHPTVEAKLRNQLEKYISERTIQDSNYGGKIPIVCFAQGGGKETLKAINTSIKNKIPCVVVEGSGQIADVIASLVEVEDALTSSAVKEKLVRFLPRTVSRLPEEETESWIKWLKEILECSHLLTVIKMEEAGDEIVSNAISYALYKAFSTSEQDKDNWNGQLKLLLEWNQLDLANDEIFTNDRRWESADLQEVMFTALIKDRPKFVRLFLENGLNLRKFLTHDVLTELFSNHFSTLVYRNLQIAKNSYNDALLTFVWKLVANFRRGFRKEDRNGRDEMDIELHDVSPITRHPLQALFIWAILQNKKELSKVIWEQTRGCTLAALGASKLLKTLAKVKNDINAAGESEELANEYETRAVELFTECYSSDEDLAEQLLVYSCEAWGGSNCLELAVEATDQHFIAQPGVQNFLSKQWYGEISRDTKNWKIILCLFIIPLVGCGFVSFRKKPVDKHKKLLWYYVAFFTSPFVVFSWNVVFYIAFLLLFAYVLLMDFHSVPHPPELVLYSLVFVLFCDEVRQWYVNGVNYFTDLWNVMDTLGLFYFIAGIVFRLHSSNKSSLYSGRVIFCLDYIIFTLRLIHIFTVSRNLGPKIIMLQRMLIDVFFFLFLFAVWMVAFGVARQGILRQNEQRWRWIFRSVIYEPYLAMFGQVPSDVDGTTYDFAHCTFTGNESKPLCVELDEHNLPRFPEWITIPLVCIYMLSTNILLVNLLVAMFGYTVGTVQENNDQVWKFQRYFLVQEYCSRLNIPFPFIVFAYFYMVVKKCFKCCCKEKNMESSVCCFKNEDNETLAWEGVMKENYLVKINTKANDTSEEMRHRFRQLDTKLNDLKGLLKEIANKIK

Compound | IC50 [1] | IC50 [2]
COc1cc(CNC(=O)CCCC/C=C/C(C)C)ccc1O [capsaicin] | 39.9 ± 6.4 µM | 
CC1CCC(C(C)C)C(O)C1 (centres unmarked) [menthol] |  | 1200 ± 200 µM
